Reference: US9567326B2, “Pyrimidine compounds for the treatment of cancer” (THE UNIVERSITY OF NORTH CAROLINA AT CHAPEL HILL, priority 2012, dated 2017)

Biological target: T1, Mer (Homo sapiens, UniProt Q12866)
T1 sequence (Q12866 21-999): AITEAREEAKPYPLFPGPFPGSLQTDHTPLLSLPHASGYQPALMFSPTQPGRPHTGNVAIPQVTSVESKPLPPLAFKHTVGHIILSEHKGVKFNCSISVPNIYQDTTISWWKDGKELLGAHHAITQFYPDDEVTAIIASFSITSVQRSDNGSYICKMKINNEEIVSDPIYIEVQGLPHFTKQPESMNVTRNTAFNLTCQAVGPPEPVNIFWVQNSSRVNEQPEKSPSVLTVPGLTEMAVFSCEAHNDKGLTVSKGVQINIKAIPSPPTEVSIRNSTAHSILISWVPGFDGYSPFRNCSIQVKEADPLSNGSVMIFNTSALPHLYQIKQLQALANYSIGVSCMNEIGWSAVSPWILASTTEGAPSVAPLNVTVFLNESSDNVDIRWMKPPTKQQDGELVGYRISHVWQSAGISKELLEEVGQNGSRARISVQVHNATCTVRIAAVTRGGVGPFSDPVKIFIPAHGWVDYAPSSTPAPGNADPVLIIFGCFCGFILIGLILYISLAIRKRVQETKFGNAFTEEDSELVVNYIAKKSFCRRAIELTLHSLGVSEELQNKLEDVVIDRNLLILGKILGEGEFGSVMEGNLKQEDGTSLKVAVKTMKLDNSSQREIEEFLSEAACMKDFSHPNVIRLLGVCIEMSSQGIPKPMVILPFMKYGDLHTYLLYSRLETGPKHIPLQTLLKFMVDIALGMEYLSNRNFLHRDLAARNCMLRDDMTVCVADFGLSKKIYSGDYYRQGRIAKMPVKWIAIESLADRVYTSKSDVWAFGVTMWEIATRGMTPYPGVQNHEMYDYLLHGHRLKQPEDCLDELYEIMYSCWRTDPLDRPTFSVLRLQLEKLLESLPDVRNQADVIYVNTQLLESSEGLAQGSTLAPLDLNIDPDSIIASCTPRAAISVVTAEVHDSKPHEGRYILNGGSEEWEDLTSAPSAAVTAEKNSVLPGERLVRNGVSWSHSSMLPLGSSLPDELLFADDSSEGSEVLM
Assay: Mer IC50
Format: biochemical

Structure (SMILES) | IC50 (Table 3 (General Procedure C compounds)) | IC50 (Table 7 (General Procedure G compounds))
CCCCNc1ncc(-c2ccc(C(=O)NC3CCN(C(=O)OC(C)(C)C)CC3)cn2)c(NC2CCC(O)CC2)n1 (centres unmarked) [UNC1898A] | < 10 nM | 
CCCCNc1ncc(-c2cncc(N)n2)c(N[C@H]2CC[C@H](O)CC2)n1 [UNC3118A] |  | < 10 nM
